Assay results reported in patent US7338968B2, “Thiadiazoles AS CXC- and CC- chemokine receptor ligands” (Schering Corporation, priority 2003, dated 2008).
pEC50, pKi: −log10 of the molar value.

How the values were obtained:
hCXCR1 = target: T1, hCXCR1 (Homo sapiens, UniProt P25024); test: CXCR1 SPA assay ([125I]-IL-8 binding, hCXCR1-CHO membranes; incl. alternative Biosignal Packard and Euroscreen protocols)
T1 construct: purchased Biosignal / Biosignal Packard; alternatively Euroscreen; host or cells: CHO cells (membranes)
T1 sequence (P25024 1-350): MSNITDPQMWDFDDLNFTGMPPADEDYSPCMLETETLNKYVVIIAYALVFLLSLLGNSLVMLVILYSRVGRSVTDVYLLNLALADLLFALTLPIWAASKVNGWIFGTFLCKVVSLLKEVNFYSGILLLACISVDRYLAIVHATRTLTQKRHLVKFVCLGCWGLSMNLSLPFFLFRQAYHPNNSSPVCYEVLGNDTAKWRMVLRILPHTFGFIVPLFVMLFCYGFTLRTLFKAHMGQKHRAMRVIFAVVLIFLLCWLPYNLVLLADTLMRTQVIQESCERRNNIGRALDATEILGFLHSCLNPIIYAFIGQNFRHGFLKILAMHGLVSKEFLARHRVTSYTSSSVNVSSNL
Experimental: For each well of a 96 well plate, a reaction mixture of 10 μg hCXCR1-CHO overexpressing membranes (Biosignal) and 200 μg/well WGA-SPA beads (Amersham) in 100 μl was prepared in CXCR1 assay buffer (25 mM HEPES, pH 7.8, 2 mM CaCl2, 1 mM MgCl2, 125 mM NaCl, 0.1% BSA) (Sigma). A 0.4 nM stock of ligand, [125I]-IL-8 (NEN) was prepared in the CXCR1 assay buffer. 20× stock solutions of test compounds were prepared in DMSO (Sigma). […] The above solutions were added to a 96-well assay plate (PerkinElmer) as follows: 10 μl test compound or DMSO, 40 μl CXCR1 assay buffer or IL-8 stock, 100 μl of reaction mixture, 50 μl of ligand stock (Final [Ligand]=0.1 nM).
For each 50 μl reaction, a working stock of 0.25 μg/μl hCXCR1-CHO over-expressing membranes with a specific activity of 0.05 pmol/mg (Biosignal Packard) and 25 μg/μl WGA-SPA beads (Perkin Elmer Life Sciences) was prepared in CXCR1 assay buffer (25 mM HEPES, pH 7.8, 0.1 mM CaCl2, 1 mM MgCl2, 100 mM NaCl) (Sigma). This mixture was incubated on ice for 30 minutes and then centrifuged at 2500 rpm for 5 minutes. The beads and membranes were resuspended in CXCR1 assay buffer to the same concentrations as in the original mixture. […] The assay plates were incubated for 4 hours before cpm/well were determined in a Microbeta Trilux counter (Perkin Elmer Life Sciences). IC50 values were quantified using nonlinear regression analysis in GraphPad Prism. […]

hCXCR2 = target: T2, hCXCR2 (Homo sapiens, UniProt P25025); test: CXCR2 SPA assay ([125I]-IL-8 binding, hCXCR2-CHO membranes; incl. alternative 50 μl and 200 μl protocols)
T2 construct: purchased Biosignal / Biosignal Packard; host or cells: CHO cells (membranes)
T2 sequence (P25025 1-360): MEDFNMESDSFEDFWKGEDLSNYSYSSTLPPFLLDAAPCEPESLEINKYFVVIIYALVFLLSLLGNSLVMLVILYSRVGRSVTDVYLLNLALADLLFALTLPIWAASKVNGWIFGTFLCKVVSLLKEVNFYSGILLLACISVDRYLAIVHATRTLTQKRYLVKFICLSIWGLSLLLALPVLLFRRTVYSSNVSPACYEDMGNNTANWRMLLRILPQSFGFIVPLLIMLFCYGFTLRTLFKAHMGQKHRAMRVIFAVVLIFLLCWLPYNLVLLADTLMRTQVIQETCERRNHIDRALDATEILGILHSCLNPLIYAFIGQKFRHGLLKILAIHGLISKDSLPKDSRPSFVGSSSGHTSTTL
Experimental: For each well of a 96 well plate, a reaction mixture of 4 μg hCXCR2-CHO overexpressing membranes (Biosignal) and 200 μg/well WGA-SPA beads (Amersham) in 100 μl was prepared in CXCR2 assay buffer (25 mM HEPES, pH 7.4, 2 mM CaCl2, 1 mM MgCl2). A 0.4 nM stock of ligand, [^125I]-IL-8 (NEN), was prepared in the CXCR2 assay buffer. 20× stock solutions of test compounds were prepared in DMSO (Sigma). A 6× stock solution of GRO-α (R&D) was prepared in CXCR2 assay buffer. […]
For each 50 μl reaction, a working stock of 0.031 μg/μl hCXCR2-CHO over-expressing membranes with a specific activity of 0.4 pmol/mg (Biosignal Packard) and 2.5 μg/μl WGA-SPA beads (Perkin Elmer Life Sciences) was prepared in CXCR2 assay buffer (25 mM HEPES, pH 7.4, 2.0 mM CaCl2, 1 mM MgCl2) (Sigma). […] The assay plates were incubated for 2 hours before cpm/well were determined in a Microbeta Trilux counter (Perkin Elmer Life Sciences). IC50 values were quantified using nonlinear regression analysis in GraphPad Prism. […]
For each 200 μl reaction, a working stock of 0.02 μg/μl hCXCR2—CHO over-expressing membranes with a specific activity of 0.6 pmol/mg (Biosignal Packard) and 2 μg/μl WGA-SPA beads (Perkin Elmer Life Sciences) was prepared in CXCR2 assay buffer (25 mM HEPES, pH 7.4, 2.0 mM CaCl2, 1 mM MgCl2) (Sigma). […] IC50 values were quantified using nonlinear regression analysis in GraphPad Prism.

CCR7 = target: T3, CCR7 (Homo sapiens, UniProt P32248); test: CCR7 [35S]GTPγS exchange assay (SPA, Ba/F3-CCR7 membranes, 2 nM MIP-3); format: biochemical
T3 construct: expressed in transfected cells; host or cells: Ba/F3 cells (membranes prepared in house)
T3 sequence (P32248 25-378): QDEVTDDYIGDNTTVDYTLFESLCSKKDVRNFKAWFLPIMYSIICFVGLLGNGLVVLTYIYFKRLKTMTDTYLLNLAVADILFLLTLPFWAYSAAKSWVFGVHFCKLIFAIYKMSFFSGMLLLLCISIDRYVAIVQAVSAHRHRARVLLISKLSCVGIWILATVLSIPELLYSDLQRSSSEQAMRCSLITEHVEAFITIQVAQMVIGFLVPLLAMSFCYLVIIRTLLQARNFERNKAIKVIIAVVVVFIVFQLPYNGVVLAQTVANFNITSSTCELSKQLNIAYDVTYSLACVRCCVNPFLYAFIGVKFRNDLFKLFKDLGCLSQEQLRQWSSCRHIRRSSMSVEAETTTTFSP
Experimental: CCR7 Membrane Preparation.
Ba/F3-CCR7 membranes were prepared as previously described (Hipkin et al., J. Biol. Chem., 272, 1997, 13869-76). Cells were pelleted by centrifugation, incubated in homogenization buffer (10 mM Tris-HCl, 5 mM EDTA, 3 mM EGTA, pH 7.6) and 1 μM PMSF for 30 min. on ice. The cells were then lysed with a Dounce homogenizer using stirrer type RZR3 polytron homogenizer (Caframo, Wiarton, Ont.) with 12 strokes at 900 RPM. The intact cells and nuclei were removed by centrifugation at 500×g for 5 min. The cell membranes in the supernatant were then pelleted by centrifugation at 100,000×g for 30 min. The membranes were then resuspended in glygly buffer (20 mM glycylglycine, 1 mM MgCl2, 250 mM sucrose, pH 7.2), aliquoted, quick frozen and stored at −80° C.
CCR7 [^35S]GTPγS Exchange Assay.
The exchange of guanosine 5′-[γ-^35S]triphospate ([^35S]GTPγS, triethylammonium salt; specific activity=1250 Ci/mmol; NEN Boston, Mass.) was measured using a scintillation proximity assay (SPA) as previously described (Cox, et. al., Mol. Pharmacol., 59, 2001, 707-15). […] Membrane-bound [^35S]GTPγS was measured using a 1450 Microbeta Trilux counter (Wallac, Gaithersburg, Md.).

| Structure (SMILES) | pKi (hCXCR1) | pKi (hCXCR2) | pEC50 (CCR7) |
| --- | --- | --- | --- |
| CC[C@@H](Nc1nsnc1Nc1cccc(C(=O)N(C)C)c1O)c1cc(C(C)C)co1 [Example 1] | 6.09 | 7.55 | – |
| Cc1ccc([C@H](Nc2nsnc2Nc2cccc(C(=O)N(C)C)c2O)C(C)C)o1 [Example 3] | – | – | 6.06 |
| Cc1ccc([C@H](Nc2nsnc2Nc2cccc(C(=O)N(C)C)c2O)C(C)(C)C)o1 [Example 6] | – | 7.85 | 7.66 |
